Source: patent US20110171279A1, “POLYETHYLENIMINE BIOCIDES” (NDSU RESEARCH FOUNDATION, priority 2009, published 2011)
Where two headings read alike, the source gives them in different places. Values belong to the compound of their own block, whether it stands above or below them.

Experiments:
Format in all cases: cell-based
[1] = system: Staphylococcus epidermidis; experiment: Growth reduction / MIC test against Staphylococcus epidermidis in tryptic soy broth, absorbance 600 nm; conditions: for Percent reduction in growth of Staphylococcus epidermidis: Table 9; for MIC: Staphylococcus epidermidis, read-out: S. epidermidis MIC
Procedure: (§1) The antimicrobial properties of the Formulations were determined by measuring the minimum inhibitory concentration (MIC) or by using an adaptation of the MIC test. […] Additional details of the MIC method can be found at Andrews, J. M., Journal of Antimicrobial Chemotherapy (2001) 48, 5-16, incorporated herein by reference in its entirety.
(§2) In accordance with the MIC test, working solutions for each Formulation were prepared by dissolving 100 mg of each Formulation in 10 mL of methanol (Sigma-Aldrich) to generate a 10 mg/mL solution. Next, 10 ml of tryptic soy broth was spiked with 200 μL of the mg/mL Formulation solution to achieve a final concentration of 0.2 mg/mL.
(§3) 0.2 mL of each concentration of each Formulation (spiked with S. epidermidis) was added in triplicate to a 96-well plate. Additionally, 0.2 mL of tryptic soy broth without any S. epidermidis or Formulation and 0.2 mL of tryptic soy broth with S. epidermidis, but no Formulations, served as negative and positive growth controls, respectively. Plates were then placed in an incubator, at 37° C. for 24 hrs (with shaking), and then measured for growth by taking absorbance measurements at 600 nm with a multi-well plate spectrophotometer (Synergy HT microplate reader, BioTek Instruments, Winooski, Vt.). The efficacy of each Formulation was measured by determining the percent reduction in bacterial growth as a function of Formulation concentration.
For comparison purposes a benzylpiperidino biocide (“Reference 1”) was prepared using ETCS and synthetic methods similar to those described in U.S. Pat. No. 5,036,077, issued Jul. 30, 1991, and incorporated by reference in its entirety. To make Reference 1, 3.9 g of ETCS and 2 g of 4-benzylpiperidine were reacted in 30 mL of methanol. The mixture was heated at 65° C. for 48 hours. Reaction completion was confirmed by ^1H NMR, ^13C NMR, HMQC (2D) NMR and elemental analysis. The antimicrobial activity of Formulations 69-77 and Reference 1 toward S. epidermidis was measured by determining the percent reduction in bacterial growth as a function of concentration, as was done above in EXAMPLE 3.

Escherichia coli = experiment: Growth reduction / MIC test against Escherichia coli in Luria-Bertani broth, absorbance 600 nm; conditions: for Percent reduction in growth of Escherichia coli: Table 10; for MIC: Escherichia coli, read-out: E. Coli MIC
Procedure: as §1
as §2, with “Luria-Bertani” for “tryptic soy”
as §3, with “E. coli)” for “S. epidermidis)”, “Luria-Bertani” for “tryptic soy”, “E. coli” for “S. epidermidis”, “E. coli,” for “S. epidermidis,”, “HT).” for “HT microplate reader, BioTek Instruments, Winooski, Vt.).”
Next, the antimicrobial activity of Formulations 69-77 and Reference 1 toward E. coli was measured by determining the percent reduction in bacterial growth as a function of concentration. The results for the examples were compared to various PEIs used to produce the examples.

Candida albicans = experiment: Antifungal activity, percent reduction in fungal growth of Candida albicans; conditions: Table 11
Procedure: Additionally, the antifungal activity of Formulations 69-77 and Reference 1 toward Candida albicans was measured by determining the percent reduction in fungal growth as a function of concentration.

Halomonas pacifica = experiment: Growth reduction / MIC test against Halomonas pacifica; conditions: for MIC: Bisbaumannia pacifica
Procedure: as §1
as §2, with “ml of Guillard's F/2 medium was spiked” for “ml of tryptic soy broth was spiked”, “of the 10 mg/mL Formulation” for “of the mg/mL Formulation”
0.2 mL of each H. pacifica concentration was added in triplicate to a 96-well plate. Additionally, 0.2 mL of Guillard's F/2 medium without any H. pacifica or Formulation and 0.2 mL of Guillard's F/2 medium with H. pacifica, but no Formulations, served as negative and positive growth controls, respectively. The 96-well plates were placed in an illuminated growth cabinet with a 16:8 light:dark cycle (photon flux density 33 μmol m^−2 s^−1) for 48 hrs at 18° C. and measured for chlorophyll fluorescence using a multi-well plate spectrophotometer (excitation: 360 nm; emission: 670 nm). The efficacy of each Formulation was measured by determining the percent reduction in diatom growth as a function of Formulation concentration.
(§4) The antimicrobial activity of Formulations 10-12, also derived from ETCS and PEI, was determined toward a suite of marine microorganisms, namely, Pseudoalteromonas atlantica, Cellulophaga lytica, Cobetia marina, and Halomonas pacifica. The antimicrobial activity of Formulations 10-12 was determined toward these marine microorganisms according to the methods of EXAMPLES 5-7. The MIC for each Formulation against each strain is compared to that of the PEI, ETCS, and TCS (alone) in Table 7.

Navicula incerta [2] = experiment: Growth reduction / MIC test against Navicula incerta in Guillard's F/2 medium, chlorophyll fluorescence
Procedure: as §1
as §2, with “ml of Guillard's F/2 medium was spiked” for “ml of tryptic soy broth was spiked”, “of the 10 mg/mL Formulation” for “of the mg/mL Formulation”
(§5) 0.2 mL of each concentration of each Formulation (spiked with N. incerta) was added in triplicate to a 96-well plate. Additionally, 0.2 mL of Guillard's F/2 medium without any N. incerta or Formulation and 0.2 mL of Guillard's F/2 medium with N. incerta, but no Formulations, served as negative and positive growth controls, respectively. The 96-well plates were placed in an illuminated growth cabinet with a 16:8 light:dark cycle (photon flux density 33 μmol m^−2 s^−1) for 48 hrs at 18° C. and measured for chlorophyll fluorescence using a multi-well plate spectrophotometer (excitation: 360 nm; emission: 670 nm). The efficacy of each Formulation was measured by determining the percent reduction in diatom growth as a function of Formulation concentration.

Cellulophaga lytica = experiment: Growth reduction / MIC test against Cellulophaga lytica; conditions: for MIC: Cellulophaga lytica
Procedure: as §1
as §2, with “ml of Guillard's F/2 medium was spiked” for “ml of tryptic soy broth was spiked”, “of the 10 mg/mL Formulation” for “of the mg/mL Formulation”
as §5, with “C. lytica)” for “N. incerta)”, “C. lytica” for “N. incerta”, “C. lytica,” for “N. incerta,”
as §4

Navicula incerta [3] = experiment: Growth reduction / MIC test against Navicula incerta in Guillard's F/2 medium, chlorophyll fluorescence; conditions: Table 12; read-out: N. incerta MIC
[4] = Formulation Concentration 0.78125 μg/mL
[5] = Formulation Concentration 1.5625 μg/mL
[6] = Formulation Concentration 3.125 μg/mL
[7] = Formulation Concentration 6.25 μg/mL
[8] = Formulation Concentration 12.5 μg/mL
[9] = Formulation Concentration 25 μg/mL
[10] = Formulation Concentration 50 μg/mL
[11] = Formulation Concentration 100 μg/mL
[12] = Table 12, read-out: H. pacifica MIC
[13] = Table 12, read-out: C. lytica MIC

Compound: Clc1cc(Cl)c(OCC2CO2)c(Cl)c1 (stereo not drawn) [EDCP, 2-((2,4,6-trichlorophenoxy)methyl)oxirane]
Percent reduction in growth of Staphylococcus epidermidis [1, 4]: 7.58% | Percent reduction in growth of Staphylococcus epidermidis [1, 5]: 6.34% | Percent reduction in growth of Staphylococcus epidermidis [1, 6]: 5.04% | Percent reduction in growth of Staphylococcus epidermidis [1, 7]: 8.44% | Percent reduction in growth of Staphylococcus epidermidis [1, 8]: 6.20% | Percent reduction in growth of Staphylococcus epidermidis [1, 9]: 8.90% | Percent reduction in growth of Staphylococcus epidermidis [1, 10]: 5.00% | Percent reduction in growth of Staphylococcus epidermidis [1, 11]: 0.00% | Percent reduction in growth of Escherichia coli (Escherichia coli; [4]): 14.85% | Percent reduction in growth of Escherichia coli (Escherichia coli; [5]): 1.60% | Percent reduction in growth of Escherichia coli (Escherichia coli; [6]): 0.00% | Percent reduction in growth of Escherichia coli (Escherichia coli; [7]): 55.43% | Percent reduction in growth of Escherichia coli (Escherichia coli; [8]): 52.95% | Percent reduction in growth of Escherichia coli (Escherichia coli; [9]): 61.26% | Percent reduction in growth of Escherichia coli (Escherichia coli; [10]): 1.38% | Percent reduction in growth of Escherichia coli (Escherichia coli; [11]): 91.65% | Percent reduction in growth of Candida albicans (Candida albicans; [4]): 11.66% | Percent reduction in growth of Candida albicans (Candida albicans; [5]): 15.25% | Percent reduction in growth of Candida albicans (Candida albicans; [6]): 0.00% | Percent reduction in growth of Candida albicans (Candida albicans; [7]): 1.45% | Percent reduction in growth of Candida albicans (Candida albicans; [8]): 0.00% | Percent reduction in growth of Candida albicans (Candida albicans; [9]): 0.00% | Percent reduction in growth of Candida albicans (Candida albicans; [10]): 21.55% | Percent reduction in growth of Candida albicans (Candida albicans; [11]): 25.83%

Compound: CNc1ccccc1 [N-methyl aniline, N-methylaniline]
MIC (Halomonas pacifica; read-out: H. pacifica MIC, Table 12): > 100 µg/mL | MIC [1]: > 100 µg/mL | MIC (Navicula incerta [2]; read-out: N. incerta MIC): > 100 µg/mL | MIC (Cellulophaga lytica; read-out: C. lytica MIC, Table 12): > 100 µg/mL | MIC (Escherichia coli): > 100 µg/mL

Compound: C=CCN [allyl amine]
MIC (Halomonas pacifica; [12]): > 100 µg/mL | MIC ([1]; Table 12): > 100 µg/mL | MIC (Cellulophaga lytica; [13]): > 100 µg/mL | MIC (Escherichia coli; Table 12): > 100 µg/mL | MIC (Navicula incerta [3]): > 100 µg/mL

The remaining lines, values ahead:

MIC (Halomonas pacifica; [12]): > 100 µg/mL | MIC ([1]; Table 12): > 100 µg/mL | MIC (Cellulophaga lytica; [13]): > 100 µg/mL | MIC (Escherichia coli; Table 12): > 100 µg/mL | MIC (Navicula incerta [3]): > 100 µg/mL
Compound: COCCNCCOC [bis(methoxyethyl), bis(2-methoxyethyl)amine]

MIC (Halomonas pacifica; [12]): > 100 µg/mL | MIC ([1]; Table 12): > 100 µg/mL | MIC (Cellulophaga lytica; [13]): > 100 µg/mL | MIC (Escherichia coli; Table 12): > 100 µg/mL | MIC (Navicula incerta [3]): > 100 µg/mL
Compound: OCCNCCO [diethanolamine]

H. pacifica MIC (Halomonas pacifica; Table 12): >100 µg/mL | S. epidermidis MIC ([1]; Table 12): >100 µg/mL | N. incerta MIC (Navicula incerta [2]; Table 12): >100 µg/mL | C. lytica MIC (Cellulophaga lytica; Table 12): >100 µg/mL | E. Coli MIC (Escherichia coli; Table 12): >100 µg/mL
Compound: CC(O)CNCC(C)O (stereo not drawn) [diisopropanolamine]

MIC (Halomonas pacifica; [12]): > 100 µg/mL | MIC ([1]; Table 12): > 100 µg/mL | MIC (Cellulophaga lytica; [13]): > 100 µg/mL | MIC (Escherichia coli; Table 12): > 100 µg/mL | MIC (Navicula incerta [3]): > 100 µg/mL
Compound: NCCN [ethylenediamine]
